# What was measured:
# D2 DAR [1] = biological target: T1, D2 DAR (Homo sapiens (Human), UniProt P14416); assay: [35S]GTPγS binding assay; assay type: biochemical; conditions: % maximum dopamine response
# Source text: A [^35S]GTPγS (Perkin Elmer NEG030H) binding assay was utilized as described in the protocol below (Table 7).
# D2 DAR [2] = biological target: T1, D2 DAR; assay type: cell-based; conditions: β-arrestin recruitment, agonist; 'curve' = wrapped cell 'curve interrupted'
# D3 DAR = D3 DAR (Homo sapiens (Human), UniProt P35462); assay type: cell-based; conditions: β-arrestin recruitment, agonist
# D3R [3] = biological target: T2, D3R (Homo sapiens (Human), UniProt P35462); assay: Go BRET activation assay; assay type: cell-based; conditions: orthogonal assay
# D3R [4] = biological target: T2, D3R; assay: BRET arrestin recruitment assay; assay type: cell-based; conditions: orthogonal assay
# D3R Y365A [5] = biological target: T3, D3R Y365A (Homo sapiens (Human), UniProt P35462, Y365A); assay: arrestin BRET assay, mutagenesis; assay type: cell-based; conditions: Y365A mutation
# Protocol: (§1) BRET arrestin recruitment assay. As an orthogonal test using an unrelated assay of D3R-mediated β-arrestin recruitment, an arrestin BRET assay was conducted.
# (§2) […]. […] […]. The Y365A mutation had more dramatic effects. […].
# D3R Y198A [6] = biological target: T4, D3R Y198A (Homo sapiens (Human), UniProt P35462, Y198A); assay: arrestin BRET assay, mutagenesis; assay type: cell-based
# Protocol: as §1, §2
# D3R Y365A [7] = biological target: T3, D3R Y365A; assay: Go BRET assay, mutagenesis; assay type: cell-based
# Source text: (§3) Go BRET activation assay. […].
# as §2
# D3R Y198A [8] = biological target: T4, D3R Y198A; assay: Go BRET assay, mutagenesis; assay type: cell-based
# Source text: as §3, §2
# HepG2 cells = assay: Cytotoxicity screening panel, High Content Screening; assay type: cell-based
# Protocol: (§4) HepG2 cells were plated on 384-well tissue culture treated black walled clear bottomed polystyrene plates. The cells were dosed with test compound at a range of concentrations. At the end of the incubation period, the cells were loaded with the relevant dye/antibody for each cell health marker. The plates were then scanned using an automated fluorescent cellular imager, ArrayScan® (Thermo Scientific Cellomics). Cytotoxicity was assessed using a multi-parametric approach using High Content Screening (HCS). The following parameters were screened.
# (§5) Nuclear size: An increase in nuclear area can indicate necrosis or G2 cell cycle arrest and a decrease can indicate apoptosis.
# (§6) DNA structure: An increase in DNA structure can indicate chromosomal instability and DNA fragmentation.
# (§7) Cell membrane permeability: An increase in cell membrane permeability is a general indicator of cell death.
# (§8) Mitochondrial mass: A decrease in mitochondrial mass indicates loss of total mitochondria and an increase implies mitochondrial swelling or an adaptive response to cellular energy demands.
# (§9) Mitochondrial membrane potential (Δψm): A decrease indicates a loss of mitochondrial membrane potential and mitochondrial toxicity, as well as a potential role in apoptosis signaling, an increase in mitochondrial membrane potential indicates an adaptive response to cellular energy demands.
# (§10) Cytochrome c: An increase in cytochrome c release is one of the hallmarks of the apoptosis cascade.
# [9] = as above; assay type: cell-based; conditions: human, HepG2 cells; Mitochondrial Membrane Potential, response direction ↓
# Protocol: as §4, §5, §6, §7, §8, §9, §10
# panel of 168 GPCRs [10] = biological target: panel of 168 GPCRs (Homo sapiens, UniProt Q9Y5N1); assay type: cell-based; conditions: GPCR HRH3; agonist, 10 μM
# panel of 168 GPCRs [11] = biological target: panel of 168 GPCRs (Homo sapiens, UniProt P30559); assay type: cell-based; conditions: GPCR OXTR; agonist, 10 μM
# panel of 168 GPCRs [12] = biological target: panel of 168 GPCRs (Homo sapiens, UniProt P49683); assay type: cell-based; conditions: GPCR PRLHR; agonist, 10 μM
# panel of 168 GPCRs [13] = biological target: panel of 168 GPCRs (Homo sapiens, UniProt P35346); assay type: cell-based; conditions: GPCR SSTR5; agonist, 10 μM
# panel of 168 GPCRs [14] = biological target: panel of 168 GPCRs (Homo sapiens, UniProt P21731); assay type: cell-based; conditions: GPCR TBXA2R; agonist, 10 μM
# panel of 168 GPCRs [15] = biological target: panel of 168 GPCRs (Homo sapiens, UniProt P43115); assay type: cell-based; conditions: GPCR PTGER3; agonist, 10 μM
# 5HT2B receptor = 5HT2B receptor (Homo sapiens (Human), UniProt P41595); assay: HTRF IP1 accumulation assay (Eurofins Cerep); assay type: cell-based
# D3R [16] = biological target: T2, D3R; assay: ERK1/2 Phosphorylation assay; assay type: cell-based; conditions: orthogonal assay
# [17] = Cell Membrane Permeability, response direction ↑
# [18] = Cytochrome c, response direction ↑
# [19] = DNA Structure, response direction ↑
# [20] = Mitochondrial Mass, response direction ↑
# [21] = Nuclear Size, response direction ↑
# T2 sequence (P35462 whole entry): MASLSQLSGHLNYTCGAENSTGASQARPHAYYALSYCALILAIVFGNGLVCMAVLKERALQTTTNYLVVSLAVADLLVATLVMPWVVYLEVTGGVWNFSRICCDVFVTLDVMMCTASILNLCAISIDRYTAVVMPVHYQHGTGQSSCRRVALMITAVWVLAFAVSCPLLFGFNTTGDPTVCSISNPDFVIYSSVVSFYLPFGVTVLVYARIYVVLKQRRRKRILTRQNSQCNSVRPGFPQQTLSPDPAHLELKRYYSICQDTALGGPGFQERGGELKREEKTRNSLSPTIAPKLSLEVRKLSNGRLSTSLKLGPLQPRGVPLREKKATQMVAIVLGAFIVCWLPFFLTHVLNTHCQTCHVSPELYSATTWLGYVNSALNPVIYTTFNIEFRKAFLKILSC
# T4 sequence (P35462 whole entry Y198A): as the sequence (P35462 whole entry) above, with Y198A counted along it
# T3 sequence (P35462 whole entry Y365A): as the sequence (P35462 whole entry) above, with Y365A counted along it
# Chain of 5HT2B receptor (P41595 whole entry): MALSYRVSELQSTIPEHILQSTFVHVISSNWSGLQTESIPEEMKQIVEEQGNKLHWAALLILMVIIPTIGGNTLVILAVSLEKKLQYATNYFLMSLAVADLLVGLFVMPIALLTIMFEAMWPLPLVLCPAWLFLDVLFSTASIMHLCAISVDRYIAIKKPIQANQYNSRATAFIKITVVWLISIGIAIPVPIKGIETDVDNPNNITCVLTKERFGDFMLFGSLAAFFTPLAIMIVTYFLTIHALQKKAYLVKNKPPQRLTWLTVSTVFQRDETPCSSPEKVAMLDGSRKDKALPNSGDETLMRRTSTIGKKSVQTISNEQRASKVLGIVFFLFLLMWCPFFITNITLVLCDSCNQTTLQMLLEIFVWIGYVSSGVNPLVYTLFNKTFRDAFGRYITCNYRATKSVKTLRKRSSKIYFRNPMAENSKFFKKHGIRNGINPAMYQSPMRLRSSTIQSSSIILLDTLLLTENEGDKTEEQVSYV
# T1 sequence (P14416 whole entry): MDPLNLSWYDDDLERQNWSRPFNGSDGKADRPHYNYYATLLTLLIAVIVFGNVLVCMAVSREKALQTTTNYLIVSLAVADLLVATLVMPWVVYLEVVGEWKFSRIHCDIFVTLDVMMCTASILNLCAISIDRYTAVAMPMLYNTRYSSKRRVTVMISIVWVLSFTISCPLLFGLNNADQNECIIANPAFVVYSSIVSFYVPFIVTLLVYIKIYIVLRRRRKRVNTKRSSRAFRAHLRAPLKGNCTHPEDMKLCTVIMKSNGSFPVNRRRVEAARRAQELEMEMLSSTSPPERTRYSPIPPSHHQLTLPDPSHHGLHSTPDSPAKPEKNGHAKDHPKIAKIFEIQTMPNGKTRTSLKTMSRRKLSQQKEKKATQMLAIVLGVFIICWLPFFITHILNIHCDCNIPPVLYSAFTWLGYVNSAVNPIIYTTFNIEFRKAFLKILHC
# Chain of D3 DAR (P35462 whole entry): as the sequence (P35462 whole entry) above
smiles,measurement,setting,value
"COc1ccc(OCCN2CCN(C(=O)c3cc4ccccc4[nH]3)CC2)cc1 [Compound 1, (1H-indol-2-yl)(4-(2-(4-methoxyphenoxy)ethyl)piperazin-1-yl)methanone]","activation of the D2 DAR, [35S]GTPγS binding",D2 DAR [1],not to activate the D2 DAR
same,D2 Emax,D2 DAR [2],Curve
same,EC50,D3 DAR,0.036 µM
same,"agonist activity, G-protein mediated signaling (Go BRET)",D3R [3],potent and fully efficacious D3R-selective agonist
same,"agonist activity, β-arrestin recruitment (BRET)",D3R [4],potent and fully efficacious D3R-selective agonist
same,"efficacy, % that of dopamine",D3R Y365A [5],210%
same,potency reduction,D3R Y365A [5],440 fold
same,effect of mutation on potency,D3R Y198A [6],minimal effects on the potency
same,"signaling efficacy, % that of dopamine",D3R Y198A [6]; Y198A mutation,36%
same,effect of mutation on efficacy,D3R Y365A [7],appeared to be unaffected
same,potency reduction,D3R Y365A [7]; Y365A mutation,"25,000 fold"
same,effect of mutation on potency,D3R Y198A [8],minimal effects on the potency
same,"signaling efficacy, % that of dopamine",D3R Y198A [8]; Y198A mutation,64%
same,AC50,HepG2 cells; [17],> 50 µM
same,MEC,HepG2 cells; [17],8.58 µM
same,AC50,HepG2 cells; [18],> 50 µM
same,MEC,HepG2 cells; [18],6.03 µM
same,AC50,HepG2 cells; [19],> 50 µM
same,MEC,HepG2 cells; [19],13.9 µM
same,AC50,HepG2 cells; [20],> 50 µM
same,MEC,HepG2 cells; [20],11.9 µM
same,MEC,"HepG2 cells; Mitochondrial Membrane Potential, response direction ↓",9.28 µM
same,AC50,HepG2 cells; [21],> 50 µM
same,MEC,HepG2 cells; [21],12.0 µM
same,AC50,[9],> 50 µM
same,β-Arrestin Recruitment activity,panel of 168 GPCRs [10],3%
same,β-Arrestin Recruitment activity,panel of 168 GPCRs [11],0%
same,β-Arrestin Recruitment activity,panel of 168 GPCRs [12],4%
same,β-Arrestin Recruitment activity,panel of 168 GPCRs [13],3%
same,β-Arrestin Recruitment activity,panel of 168 GPCRs [14],0%
same,β-Arrestin Recruitment activity,panel of 168 GPCRs [15],3%
same,inhibition at 10 µM,5HT2B receptor; read-out: inhibition of response elicited by serotonin,80%
same,"agonist activity, IP1 accumulation",5HT2B receptor; single high concentration of 10 μM,No agonist activity was found
same,"agonist activity, ERK phosphorylation",D3R [16],potent and fully efficacious D3R-selective agonist

# Reference: patent publication US11634404B2 (priority 2016, dated 2023)
